Source: publication PMC10609061, “Detection of Various Traditional Chinese Medicinal Metabolites as Angiotensin-Converting Enzyme Inhibitors: Molecular Docking, Activity Testing, and Surface Plasmon Resonance Approaches” (Molecules, 2023)

How the values were obtained:
[1] = tested on: ACE1 (angiotensin-converting enzyme); assay: ACE inhibition measurement with ACE1 activity test kit (fluorescence); format: biochemical; settings: for Inhibition rate (%) of ACE1 activity, relative to captopril taken as 100%: TCM metabolite at 25 uM
[2] = target: T1, recombinant soluble C domain of ACE1 (sACE1) (Homo sapiens, UniProt P12821); assay: SPR determination of affinity between TCM metabolites and immobilized sACE1 (Biacore T200, CM5 chip); format: binding; settings: for Binding to sACE1 by SPR (in words): SPR assay; for Kd: SPR, sACE1 on CM5 chip, 0.39-50.0 µM metabolite, 25 °C, read-out: KD (equilibrium dissociation constant)
T1 construct: The cDNA coding for the soluble C domain of ACE1 (Ile640-Ala1231) was obtained by PCR amplification; HSA signal peptide (N); made in house; host or cells: HEK293 (transient transfection, protein purified from the culture supernatant)
T1 sequence (P12821 640-1231): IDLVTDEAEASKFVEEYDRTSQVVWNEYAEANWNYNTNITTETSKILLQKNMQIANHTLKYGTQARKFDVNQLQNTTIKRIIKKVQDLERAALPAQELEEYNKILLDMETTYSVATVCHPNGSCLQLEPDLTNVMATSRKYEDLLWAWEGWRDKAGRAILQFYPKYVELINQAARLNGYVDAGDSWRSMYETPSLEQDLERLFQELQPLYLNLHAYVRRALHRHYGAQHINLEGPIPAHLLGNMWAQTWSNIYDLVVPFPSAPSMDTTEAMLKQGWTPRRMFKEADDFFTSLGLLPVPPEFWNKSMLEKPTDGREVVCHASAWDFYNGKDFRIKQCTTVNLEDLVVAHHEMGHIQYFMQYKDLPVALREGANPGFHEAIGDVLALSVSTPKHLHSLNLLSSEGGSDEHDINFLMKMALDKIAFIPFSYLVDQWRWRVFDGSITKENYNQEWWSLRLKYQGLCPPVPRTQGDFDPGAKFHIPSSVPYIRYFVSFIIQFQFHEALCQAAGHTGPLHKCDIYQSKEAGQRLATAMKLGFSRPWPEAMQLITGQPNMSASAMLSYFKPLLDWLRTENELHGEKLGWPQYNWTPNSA

Compound	Inhibition rate (%) of ACE1 activity ([1]; captopril (positive control) at 1 uM) [%]	ACE1 inhibition in vitro (in words) ([1]; enzyme activity test)	Inhibition rate (%) of ACE1 activity, relative to captopril taken as 100% [1] [%]	Binding to sACE1 by SPR (in words) [2]	Kd [2] [µM]
Procyanidin	–	–	67.5	bound to sACE1 on the chip in a dose-dependent manner	–
O=c1c(-c2ccc(O)cc2)coc2c([C@@H]3O[C@H](CO)[C@@H](O)[C@H](O)[C@H]3O)c(O)ccc12 [Puerarin]	–	–	–	bound to sACE1 on the chip in a dose-dependent manner	13.8
O=c1cc(-c2ccc(O)c(O)c2)oc2cc(O)c([C@@H]3O[C@H](CO)[C@@H](O)[C@H](O)[C@H]3O)c(O)c12 [Homoorientin]	–	–	–	bound to sACE1 on the chip in a dose-dependent manner	10.2
O=c1c(O[C@@H]2O[C@H](CO)[C@@H](O)[C@H](O)[C@H]2O)c(-c2ccc(O)c(O)c2)oc2cc(O)cc(O)c12 [Isoquercitrin]	–	–	35.6	bound to sACE1 on the chip in a dose-dependent manner	5.76
Oc1cc(O)c2c(c1)O[C@H](c1ccc(O)c(O)c1)[C@@H](O)C2 [Cianidanol]	–	–	–	bound to sACE1 on the chip in a dose-dependent manner	48.3
O=c1cc(-c2ccc(O)c(O)c2)oc2c([C@@H]3O[C@H](CO)[C@@H](O)[C@H](O)[C@H]3O)c(O)cc(O)c12 [Orientin]	–	–	–	bound to sACE1 on the chip in a dose-dependent manner	9.32
O=c1c(O)c(-c2ccc(O)c(O)c2)oc2cc(O)cc(O)c12 [Quercetin]	–	–	–	bound to sACE1 on the chip in a dose-dependent manner	–

The next lines start with results.

Inhibition rate (%) of ACE1 activity ([1]; captopril (positive control) at 1 uM) [%]	ACE1 inhibition in vitro (in words) ([1]; enzyme activity test)	Compound	Inhibition rate (%) of ACE1 activity, relative to captopril taken as 100% [1] [%]	Binding to sACE1 by SPR (in words) [2]	Kd [2] [µM]
101.5	–	C[C@H](CS)C(=O)N1CCC[C@H]1C(=O)O [Captopril, reference compound]	–	–	–
–	did not inhibit ACE1 in vitro	Oc1ccc(/C=C/c2cc(O)cc(O)c2)cc1 [Resveratrol]	–	–	–
